Columns and labels:
[1] = target: T1, RNase B (Bos taurus, UniProt P61823); experiment: Immobilization of RNase B on functionalized slides, read out with Con A-FITC fluorescence; format: biochemical, bovine; conditions: for Con A-FITC signal of RNase B on probe-functionalized slides: slides incubated with RNase B then treated with glycerol, compared to BA-tosyl-treated slides, FIG. 6(b), 6(c); for Con A-FITC intensity after release of BA-tosylate by polyol: RNase B on BA-tosyl slides, glycerol 10%, sorbitol 100 mM, compared to galactose 100 mM, FIG. 6(a)
T1 construct: Fetuin (from fetal calf serum) and RNase B (from bovine pancreas) were purchased from Sigma-Aldrich; purchased Sigma-Aldrich; host or cells: bovine pancreas (natural source)
T1 sequence (P61823 27-150): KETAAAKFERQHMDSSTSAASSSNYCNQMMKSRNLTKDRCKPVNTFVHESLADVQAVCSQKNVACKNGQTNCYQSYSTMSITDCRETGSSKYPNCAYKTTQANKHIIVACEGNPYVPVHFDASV
Procedure: The aforementioned azide-functionalized slide was rinsed twice with sodium phosphate buffer (25 mM, pH 8.0) and immersed in the same buffer (45 mL). To effect the Cu(I)-catalyzed 1,2,3-triazole cycloaddition, BA-tosyl 1 (or compound 7 or 8) was added to the reaction mixture to afford a final concentration of 5 mM and treated with TCEP (2 mM) and TBTA (2 mM). Then, an aqueous solution of CuSO 4 (100 mM) was added to the reaction mixture to give a final concentration of 4 mM, and the mixture was allowed to react at RT. After 12 h, the slide was washed three times with PBS and twice with distilled deionized water (ddH2O) to obtain BA-tosyl 1 (or compound 7 or 8)-functionalized slides.
Fluorescein-labeled lectins (Con A-FITC and WGA-FITC, 10 μM in PBS containing 5 mM CaCl2 and 5 mM MnCl2) were incubated with the glycoprotein microarray at RT for 1 h. Then, the slide was washed three times with PBS containing 10% glycerol and twice with ddH2O. Finally, the slide was dried under warm air and subjected to fluorescence analysis.
To quantitatively evaluate the protein-glycoprotein interactions, the lectin-glycoprotein complexes were analyzed by measuring the fluorescence intensities of the fluorescein tags. The fluorescence signals were directly detected by a NovaRay Microarray Scanner with an FITC filter, and were subsequently analyzed using ArrayVision software.
Glycoproteins in ddH2O containing 20% dimethyl sulfoxide (DMSO) were spotted onto the surface of the functionalized slide. To immobilize glycoproteins on the slides, an AD1500 arrayer (Biodot) was used to print samples of interest onto the functionalized slide with a spot volume of 20 nL under 85% relative humidity at 25° C. The protein sample was allowed to incubate at 25° C. for 12 h, and the glycoprotein solution was then removed by decanting the reaction mixture. The slide was incubated with ddH2O containing 10% glycerol for 30 min, followed by washing twice with the same solution (ddH2O with 10% glycerol). The slide was further treated with 10 mM imidazole solution (Tris buffer, 10 mM NaCl, pH 7.4) for 30 min to block unreacted BA-tosyl groups. The obtained glycoprotein micro-array was then washed three times by PBS (pH 7.4) and was ready for advanced use.
To evaluate the details of the immobilization mechanism, ribonuclease B (RNase B), carrying a single N-glycan chain composed of high mannose isomers, was spotted onto BA-tosyl-functionalized slides and allowed to incubate at 25° C. for 12 h. The slides were then individually treated with three different polyols in phosphate buffered saline (PBS) to competitively release the BA-tosylate. Glycerol (10%), galactose (100 mM), and sorbitol (100 mM) were used. […]

[2] = target: T2, fetuins (Bos taurus, UniProt P12763); experiment: Labeling of fetuins by probes, biotinylation, SDS-PAGE and Western blotting with anti-biotin antibody; format: biochemical, calf; conditions: probe 40 μM, fetuins 20 μM, 37° C., 48 h; FIG. 3
T2 construct: Fetuin (from fetal calf serum) and RNase B (from bovine pancreas) were purchased from Sigma-Aldrich; purchased Sigma-Aldrich; host or cells: fetal calf serum (natural source)
T2 sequence (P12763 19-359): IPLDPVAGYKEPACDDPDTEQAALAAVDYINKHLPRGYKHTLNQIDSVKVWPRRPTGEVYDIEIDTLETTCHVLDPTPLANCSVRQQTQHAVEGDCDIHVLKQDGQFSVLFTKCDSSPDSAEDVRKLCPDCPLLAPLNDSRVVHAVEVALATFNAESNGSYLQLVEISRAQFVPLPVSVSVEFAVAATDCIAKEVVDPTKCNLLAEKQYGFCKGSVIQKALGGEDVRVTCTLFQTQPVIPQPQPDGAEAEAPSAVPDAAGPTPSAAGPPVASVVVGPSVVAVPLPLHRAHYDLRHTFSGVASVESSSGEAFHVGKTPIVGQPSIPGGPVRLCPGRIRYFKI
Procedure: A solution of fetuins (10 μM) was incubated with BA-tosyl probes 1-3 (50 μM) in PBS buffer (0.1 M, pH 8.0) at 37° C. for 48 h. Then, the unreacted BA-tosyl probes were removed by centrifugal filtration (Amicon Ultra-0.5 mL 10K) at 15,000 rpm, followed by washing five times with PBS buffer (300 μL). The resultant alkyne-tagged fetuins (11.53 μL, 26.28 μg/μL) were collected and treated with azido biotin (20 μL, 1 mM) in PBS buffer (44.47 μL, pH 8.0, 0.1 M). Then, the mixture was treated with tris(carboxyethyl)phosphine (TCEP, 0.1 M, 2 μL) and tris[(1-benzyl-1H-1,2,3-triazol-4-yl)methyl]amine (TBTA, 0.01 M, 20 μL) with gentle shaking. After homogeneous mixing, CuSO4 (0.1 M, 2 μL) was added, and the reaction mixture was shaken at RT for 12 h. The excess reactants were removed by centrifugal filtration at 15,000 rpm, and the biotinylated fetuins were obtained.
To evaluate the specificity of synthetic BA-tosyl probes, BA-tosyl 1-3, aniline-tosyl 7, and BA-alkyne 8 (40 μM) were incubated with fetuins (20 μM), blood glycoproteins carrying triantennary glycan chains with terminal N-acetylneuraminic acids, at 37° C. for 48 h. The unreacted chemical probes were then removed by centrifugal filtration or size-exclusion column chromatography to obtain the alkyne-labeled fetuins. Azido biotin was then used to form biotinylated fetuins via Cu(I)-catalyzed 1,2,3-triazole cycloaddition. […]

| Con A-FITC signal of RNase B on probe-functionalized slides [1] | Con A-FITC signal of RNase B on probe-functionalized slides ([1]; listed as 7) | Western blot band of biotin-labeled fetuins (labeling of fetuin) [2] | Con A-FITC intensity after release of BA-tosylate by polyol [1] | Structure (SMILES) |
| --- | --- | --- | --- | --- |
| very low signal intensity | nearly background-level signals | much weaker signal |  | C#CCCCOS(=O)(=O)c1cc(C=O)cc(C(=O)Nc2ccccc2)c1 [aniline-tosyl 7] |
|  |  |  | twice the intensity | OCC(O)CO [glycerol] |
|  |  |  | twice the intensity | OC[C@@H](O)[C@@H](O)[C@H](O)[C@@H](O)CO [sorbitol] |

From US20160123988A1, “METHOD OF TRACELESS LABELING GLYCOPROTEINS ON SURFACE AND APPLICATION THEREOF” (NATIONAL SUN YAT-SEN UNIVERSITY, priority 2014, published 2016)
